# Data from ChEMBL document CHEMBL1201862, “PubChem BioAssay data set” (2004).
#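 Cells were grown in 96-well plates and exposed to each compound for 48 hours at five concentrations; endpoints were interpolated linearly between bracketing concentrations, or set to the highest concentration if not reached. The concentration for 50% growth inhibition is given as GI50.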 The source made the active and inactive calls. No stated cut-off is given here; in the data, active = GI50 up to about 1.1 µM and inactive = higher.
# Experiments:
# Assay in all cases: NCI anticancer screen, dose series, 48 h
# 786-0 = system: 786-0
# A498 = system: A498
# A549 = system: A549
# ACHN = system: ACHN
# BT-549 = system: BT-549
# CAKI-1 = system: CAKI-1
# CCRF-CEM = system: CCRF-CEM
# COLO 205 = system: COLO 205
# DU-145 = system: DU-145
# EKVX = system: EKVX
# HCT-116 = system: HCT-116
# HCT-15 = system: HCT-15
# HL-60 = system: HL-60
# HOP-62 = system: HOP-62
# HOP-92 = system: HOP-92
# HT-29 = system: HT-29
# Hs-578T = system: Hs-578T
# IGROV-1 = system: IGROV-1
# K562 = system: K562
# KM12 = system: KM12
# LOX IMVI = system: LOX IMVI
# M14 = system: M14
# MCF7 = system: MCF7
# MDA-MB-231 = system: MDA-MB-231
# MDA-MB-435 = system: MDA-MB-435
# MDA-N = system: MDA-N
# MOLT-4 = system: MOLT-4
# NCI-H23 = system: NCI-H23
# NCI-H460 = system: NCI-H460
# NCI/ADR-RES = system: NCI/ADR-RES
# OVCAR-3 = system: OVCAR-3
# OVCAR-4 = system: OVCAR-4
# OVCAR-5 = system: OVCAR-5
# OVCAR-8 = system: OVCAR-8
# PC-3 = system: PC-3
# RPMI-8226 = system: RPMI-8226
# RXF 393 = system: RXF 393
# SF-268 = system: SF-268
# SF-295 = system: SF-295
# SF-539 = system: SF-539
# SK-MEL-28 = system: SK-MEL-28
# SK-MEL-2 = system: SK-MEL-2
# SK-MEL-5 = system: SK-MEL-5
# SK-OV-3 = system: SK-OV-3
# SN12C = system: SN12C
# SNB-19 = system: SNB-19
# SNB-75 = system: SNB-75
# SR = system: SR
# SW-620 = system: SW-620
# T47D = system: T47D
# TK-10 = system: TK-10
# U-251 = system: U-251
# UACC-257 = system: UACC-257
# UACC-62 = system: UACC-62
# UO-31 = system: UO-31
# HCC 2998 = system: HCC 2998
# Malme-3M = system: Malme-3M
# NCI-H226 = system: NCI-H226
# NCI-H522 = system: NCI-H522
smiles,measurement,setting,value
Cc1cc(C)c2c(c1)C1=NCCN1C2(O)c1ccc(Cl)cc1 (stereo not given),GI50,786-0,16.1 µM (inactive)
same,GI50,A498,15.2 µM (inactive)
same,GI50,A549,18.2 µM (inactive)
same,GI50,ACHN,16.1 µM (inactive)
same,GI50,BT-549,13.2 µM (inactive)
same,GI50,CAKI-1,15.1 µM (inactive)
same,GI50,CCRF-CEM,17.2 µM (inactive)
same,GI50,COLO 205,15.1 µM (inactive)
same,GI50,DU-145,19.5 µM (inactive)
same,GI50,EKVX,16.1 µM (inactive)
same,GI50,HCT-116,13.3 µM (inactive)
same,GI50,HCT-15,17.2 µM
same,GI50,HL-60,19.9 µM (inactive)
same,GI50,HOP-62,15.2 µM (inactive)
same,GI50,HOP-92,7.35 µM (inactive)
same,GI50,HT-29,16.5 µM (inactive)
same,GI50,Hs-578T,16.4 µM (inactive)
same,GI50,IGROV-1,14.2 µM (inactive)
same,GI50,K562,19.1 µM (inactive)
same,GI50,KM12,15.3 µM (inactive)
same,GI50,LOX IMVI,29.3 µM (inactive)
same,GI50,M14,14.5 µM (inactive)
same,GI50,MCF7,18 µM (inactive)
same,GI50,MDA-MB-231,14.6 µM (inactive)
same,GI50,MDA-MB-435,16.7 µM (inactive)
same,GI50,MDA-N,15.1 µM (inactive)
same,GI50,MOLT-4,37.6 µM (inactive)
same,GI50,NCI-H23,17.8 µM (inactive)
same,GI50,NCI-H460,14.9 µM (inactive)
same,GI50,NCI/ADR-RES,14.4 µM (inactive)
same,GI50,OVCAR-3,15.5 µM (inactive)
same,GI50,OVCAR-4,15.5 µM (inactive)
same,GI50,OVCAR-5,16.5 µM (inactive)
same,GI50,OVCAR-8,15.8 µM (inactive)
same,GI50,PC-3,16 µM (inactive)
same,GI50,RPMI-8226,13.6 µM (inactive)
same,GI50,RXF 393,13.6 µM (inactive)
same,GI50,SF-268,15.8 µM (inactive)
same,GI50,SF-295,15.7 µM (inactive)
same,GI50,SF-539,15.3 µM (inactive)
same,GI50,SK-MEL-28,16.8 µM (inactive)
same,GI50,SK-MEL-2,18.5 µM (inactive)
same,GI50,SK-MEL-5,14.6 µM (inactive)
same,GI50,SK-OV-3,15 µM (inactive)
same,GI50,SN12C,16.5 µM (inactive)
same,GI50,SNB-19,16.2 µM (inactive)
same,GI50,SNB-75,12.3 µM (inactive)
same,GI50,SR,20.1 µM (inactive)
same,GI50,SW-620,15.6 µM (inactive)
same,GI50,T47D,16.4 µM (inactive)
same,GI50,TK-10,2.79 µM (inactive)
same,GI50,U-251,17.7 µM (inactive)
same,GI50,UACC-257,17.1 µM (inactive)
same,GI50,UACC-62,15.9 µM (inactive)
same,GI50,UO-31,13.9 µM (inactive)
O=C(C#Cc1cn(C2CC(O)C(CO)O2)c(=O)[nH]c1=O)c1ccccc1 (stereo not given),GI50,786-0,62.2 µM (inactive)
same,GI50,A549,> 100 µM (inactive)
same,GI50,ACHN,83.4 µM (inactive)
same,GI50,BT-549,37.2 µM (inactive)
same,GI50,CAKI-1,> 100 µM (inactive)
same,GI50,COLO 205,28.6 µM (inactive)
same,GI50,DU-145,> 100 µM (inactive)
same,GI50,EKVX,> 100 µM (inactive)
same,GI50,HCC 2998,> 100 µM (inactive)
same,GI50,HCT-116,42.5 µM (inactive)
same,GI50,HCT-15,> 100 µM
same,GI50,HOP-62,> 100 µM (inactive)
same,GI50,HOP-92,29.5 µM (inactive)
same,GI50,HT-29,> 100 µM (inactive)
same,GI50,Hs-578T,79.3 µM (inactive)
same,GI50,IGROV-1,> 100 µM (inactive)
same,GI50,KM12,> 100 µM (inactive)
same,GI50,LOX IMVI,49.8 µM (inactive)
same,GI50,M14,28.5 µM (inactive)
same,GI50,MCF7,33.3 µM (inactive)
same,GI50,MDA-MB-231,> 100 µM (inactive)
same,GI50,MDA-MB-435,58.9 µM (inactive)
same,GI50,MDA-N,60.3 µM (inactive)
same,GI50,Malme-3M,12.2 µM (inactive)
same,GI50,NCI-H226,70 µM (inactive)
same,GI50,NCI-H23,> 100 µM (inactive)
same,GI50,NCI-H460,> 100 µM (inactive)
same,GI50,NCI-H522,5.6 µM (inactive)
same,GI50,NCI/ADR-RES,32.6 µM (inactive)
same,GI50,OVCAR-3,21.1 µM (inactive)
same,GI50,OVCAR-4,51.4 µM (inactive)
same,GI50,OVCAR-8,> 100 µM (inactive)
same,GI50,PC-3,> 100 µM (inactive)
same,GI50,RPMI-8226,44 µM (inactive)
same,GI50,RXF 393,17.5 µM (inactive)
same,GI50,SF-268,> 100 µM (inactive)
same,GI50,SF-295,> 100 µM (inactive)
same,GI50,SF-539,23.2 µM (inactive)
same,GI50,SK-MEL-28,39.5 µM (inactive)
same,GI50,SK-MEL-2,> 100 µM (inactive)
same,GI50,SK-MEL-5,88.7 µM (inactive)
same,GI50,SK-OV-3,> 100 µM (inactive)
same,GI50,SN12C,31.8 µM (inactive)
same,GI50,SNB-19,> 100 µM (inactive)
same,GI50,SNB-75,> 100 µM (inactive)
same,GI50,SR,24.8 µM (inactive)
same,GI50,SW-620,25.2 µM (inactive)
same,GI50,T47D,19.5 µM (inactive)
same,GI50,TK-10,> 100 µM (inactive)
same,GI50,U-251,> 100 µM (inactive)
same,GI50,UACC-257,55 µM (inactive)
same,GI50,UACC-62,> 100 µM (inactive)
same,GI50,UO-31,> 100 µM (inactive)
CC1(c2nc3ccccc3[nH]2)CCC(CO)C(C)(C)O1 (stereo not given),GI50,786-0,> 100 µM (inactive)
same,GI50,A549,> 100 µM (inactive)
same,GI50,ACHN,> 100 µM (inactive)
same,GI50,BT-549,> 100 µM (inactive)
same,GI50,CAKI-1,> 100 µM (inactive)
same,GI50,CCRF-CEM,> 100 µM (inactive)
same,GI50,COLO 205,> 100 µM (inactive)
same,GI50,DU-145,> 100 µM (inactive)
same,GI50,EKVX,> 100 µM (inactive)
same,GI50,HCC 2998,> 100 µM (inactive)
same,GI50,HCT-116,> 100 µM (inactive)
same,GI50,HCT-15,> 100 µM
same,GI50,HL-60,> 100 µM (inactive)
same,GI50,HOP-62,> 100 µM (inactive)
same,GI50,HOP-92,> 100 µM (inactive)
same,GI50,HT-29,> 100 µM (inactive)
same,GI50,Hs-578T,> 100 µM (inactive)
same,GI50,IGROV-1,> 100 µM (inactive)
same,GI50,K562,> 100 µM (inactive)
same,GI50,KM12,> 100 µM (inactive)
same,GI50,LOX IMVI,> 100 µM (inactive)
same,GI50,M14,> 100 µM (inactive)
same,GI50,MCF7,> 100 µM (inactive)
same,GI50,MDA-MB-231,> 100 µM (inactive)
same,GI50,MDA-MB-435,> 100 µM (inactive)
same,GI50,MDA-N,> 100 µM (inactive)
same,GI50,MOLT-4,> 100 µM (inactive)
same,GI50,Malme-3M,> 100 µM (inactive)
same,GI50,NCI-H226,> 100 µM (inactive)
same,GI50,NCI-H23,> 100 µM (inactive)
same,GI50,NCI-H522,> 100 µM (inactive)
same,GI50,NCI/ADR-RES,> 100 µM (inactive)
same,GI50,OVCAR-3,> 100 µM (inactive)
same,GI50,OVCAR-4,> 100 µM (inactive)
same,GI50,OVCAR-5,> 100 µM (inactive)
same,GI50,OVCAR-8,> 100 µM (inactive)
same,GI50,PC-3,> 100 µM (inactive)
same,GI50,RPMI-8226,> 100 µM (inactive)
same,GI50,RXF 393,> 100 µM (inactive)
same,GI50,SF-268,> 100 µM (inactive)
same,GI50,SF-295,> 100 µM (inactive)
same,GI50,SF-539,> 100 µM (inactive)
same,GI50,SK-MEL-28,> 100 µM (inactive)
same,GI50,SK-MEL-2,> 100 µM (inactive)
same,GI50,SK-MEL-5,> 100 µM (inactive)
same,GI50,SK-OV-3,> 100 µM (inactive)
same,GI50,SN12C,> 100 µM (inactive)
same,GI50,SNB-19,> 100 µM (inactive)
same,GI50,SNB-75,> 100 µM (inactive)
same,GI50,SR,16.1 µM (inactive)
same,GI50,SW-620,> 100 µM (inactive)
same,GI50,T47D,> 100 µM (inactive)
same,GI50,TK-10,> 100 µM (inactive)
same,GI50,U-251,> 100 µM (inactive)
same,GI50,UACC-257,> 100 µM (inactive)
same,GI50,UACC-62,> 100 µM (inactive)
same,GI50,UO-31,98.6 µM (inactive)
